# Measurements published in patent US20230181553A1, “COMPOSITION FOR HAIR IMPROVEMENT” (Dr. Cherry Inc., priority 2020, published 2023).
# Experiments:
# [1] = tested on: hair cuticle; test: Hair quality evaluation of hair cuticle by scanning electron microscope; assay type: in vivo, human
# Text: The hair of the group administered with PG (administered twice a month) of Example 3 was collected, and in consideration of the growing rate (15 mm/month) of the hair of the patient, a portion corresponding to a period 2 months to 3 months (about 2.5 months) before the treatment and a portion corresponding to a period 4 months to 5 months (about 4.5 months) after starting the treatment were collected to be hermetically stored respectively in Ziploc(R). Thereafter, hair of a test site was adhesively fixed on a fixing plate with a resin. The resultant was hermetically stored, and on test day, was subjected to carbon fixation, and a state of hair cuticle was observed by an ordinary method with a scanning electron microscope on the same day. As a negative control, hair of the same patient in a portion not treated (untreated in the half side treatment) was used. Then, a portion of the hair newly grown (on the root side) and an existing portion (on the tip side) were compared with each other. A representative example is illustrated in FIG. 2. The same evaluation was performed on a larger number of patients (three patients[…]) (15 mg of PG, administered twice a month, administration 12 times in total, 6 months). The evaluation was performed 20 days after the final administration based on an electron microscope image in accordance with the following rating. The evaluation was performed by 6 doctors. An average of ratings was obtained. 5: Cuticle is aligned, and is not rough at all. 4: Cuticle is aligned than average, but is slightly rough. 3: Cuticle is aligned averagely. 2: Cuticle is rough than average, and is slightly peeled. […] Cuticle is rough as a whole, and is peeled as a whole.
# [2] = tested on: PPARγ; design: species or system Wistar Rat; conditions: rat, in vivo
# Experimental: Next, change in gene expression in a tissue was checked. As a subject, 12 weeks old Wistar Rat (male) was used. Regarding a 2.5 µg/portion administration group, three regions were set on the back from the head to the tail, and each of these regions was divided into two regions on both left and right sides of the spine to set six regions on the back in total. In such an administration group, PG was administered to two portions around the center of each of the six regions. Specifically, in the 2.5 µg/portion administration group (n = 3), 2.5 µg (20 µL) of PG was administered per portion. Besides, regarding a 0.1 µg/portion administration group and a 0.02 µg/portion administration group, two regions were set from the head to the tail, and each of these regions was divided into two regions on both left and right sides of the spine, and thus, four regions in total were set on the back. […]
# The collected tissue piece was frozen with liquid nitrogen, and stored at -80° C. […] For gene expression analysis by quantitative PCR, design and synthesis of a gene specific primer and a probe were entrusted to Integrated DNA Technologies, Inc. (Skokie, IL, USA), and an expression level of a target gene was analyzed with Prime Time Gene Expression Master Mix reagent (Integrated DNA Technologies, Inc., Skokie, IL, USA) and a Rotor-Gene Q PCR device (QIAGEN GmbH, Hilden, Germany). […]
# [3] = tested on: CD163; test: Gene expression in human scalp tissue after pioglitazone treatment (qPCR); assay type: in vivo; conditions: whole scalp three times once every two months, before vs 6 months after first treatment
# Experimental: (§1) A human subject was also checked. A suspension of pioglitazone was prepared in the same manner as in Example 2, and the whole amount of the suspension was applied to the head of a human subject. The PG treatment was performed on the whole scalp three times at a frequency of once every two months. A tissue around the test site was collected with a 3 mm punch before the treatment and 2 months after performing the treatment three times (6 months after the first treatment). The collected tissue was halved, and one half was fixed with 10% formalin, and stored under refrigeration. The other half was immersed in RNA Stabilization Solution (RNAlater, Thermo Fisher Scientific, Lithuania), and the resultant was frozen in liquid nitrogen, and stored at -80° C. Thereafter, the gene expression analysis was performed in the same manner as the rat gene expression analysis.
# (§2) A difference (ΔCt), in an expression level of mRNA, between ribosomal protein lateral stalk subunit P0 (Rp1P0) of a housekeeping gene and the target gene (average of Ct obtained from the qPCR reaction of each gene performed three times) was calculated, and in addition, a difference (ΔΔCt) in ΔCt between samples of the subject to be analyzed obtained before and after the treatment and a control (two persons not treated) was calculated. […]
# [4] = tested on: CD68; test: as above; assay type: in vivo; conditions: whole scalp three times once every two months, before vs 6 months after first treatment
# Experimental: as §1, §2
# [5] = tested on: white hair; test: Change in white hair (trichogram) after oral pioglitazone; assay type: in vivo, human; conditions: oral 15 mg once every day for 6 months
# Experimental: As pioglitazone, a 15 mg pioglitazone tablet “NP” was used. Each patient took one tablet containing 15 mg of pioglitazone around 10 o'clock in the morning once every day. Subjects were four patients ([…]). In each of the patients, lines were extended from both outer canthi toward the head, two points on these lines crossing a line extended between the both ears through the vertex were tattooed with an India ink, and a portion around the marked center was photographed under the same conditions. The patient had no white hair in a specific portion at the start, a temporal portion on the line extending between the both ears was tattooed with an Indian ink, and a portion around the marked center was photographed under the same conditions. Pioglitazone was taken continuously for 6 months, and the same test was performed every two months. For trichogram, a portion around the marked center was photographed (Canon Powder Shot […], Tokyo, Japan), and hair within a circle having a diameter of 11 mm (area: 95 mm^2) around the tattooed portion set as a center in an imaging range was photographed in two directions, and the number was visually counted to obtain an average of the two photographs.
# [6] = treated side relative to untreated side
structure (smiles),measurement,setting,value
CCc1ccc(CCOc2ccc(CC3SC(=O)NC3=O)cc2)nc1 (centres unmarked) [pioglitazone],"hair quality rating, Root","[1]; Treated Side, rating 1-5 (5: cuticle aligned, not rough at all), average of 6 doctors, three patients, 15 mg PG twice a month, 12 times, 20 days after final administration",3.7
same,"hair quality rating, Tip","[1]; Treated Side, rating 1-5, average of 6 doctors, three patients, 15 mg PG twice a month, 12 times, 20 days after final administration",2.6
same,"state of hair cuticle, newly grown portion (root side) vs tip side","[1]; treated hair, PG twice a month, representative example FIG. 2",the hair quality was obviously improved
same,"Degree of Improvement, Root",[1]; [6],1.12
same,"Degree of Improvement, Tip",[1]; [6],1.0
same,expression of PPARγ,[2],found to increase
same,expression of CD163,[3],found to increase
same,expression of CD68,[4],found to increase
same,"decrease in number of white hairs, number before administration assumed 100",[5]; n = 3,23.2%
same,"decrease of white hair, average",[5]; n = 3,12.7 hairs/95 mm^2
same,change in white hair in shaved portion,[5]; three patients having white hair before the treatment,the white hair was decreased
